Experimental data taken from PubChem BioAssay AID488888 (Sanford-Burnham Center for Chemical Genomics, 2010).
pEC50: −log10 of the molar value.

Each compound was assayed against Alkaline phosphatase, placental type (Homo sapiens) (UniProt P05187) (assay: PLAP enzyme activators, dose response, selectivity assay for human IAP activator project, biochemical, uHTS hits, luminescence (AID 488888)). Conditions: purified PLAP, CDP-Star luminescence, 30 min;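 active means mean EC50, the dose giving half of full activation, below a set limit (actives reach about 84 µM in these data); inactive means the rest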.
Chain of Alkaline phosphatase, placental type (Homo sapiens) (P05187 whole entry, looked up): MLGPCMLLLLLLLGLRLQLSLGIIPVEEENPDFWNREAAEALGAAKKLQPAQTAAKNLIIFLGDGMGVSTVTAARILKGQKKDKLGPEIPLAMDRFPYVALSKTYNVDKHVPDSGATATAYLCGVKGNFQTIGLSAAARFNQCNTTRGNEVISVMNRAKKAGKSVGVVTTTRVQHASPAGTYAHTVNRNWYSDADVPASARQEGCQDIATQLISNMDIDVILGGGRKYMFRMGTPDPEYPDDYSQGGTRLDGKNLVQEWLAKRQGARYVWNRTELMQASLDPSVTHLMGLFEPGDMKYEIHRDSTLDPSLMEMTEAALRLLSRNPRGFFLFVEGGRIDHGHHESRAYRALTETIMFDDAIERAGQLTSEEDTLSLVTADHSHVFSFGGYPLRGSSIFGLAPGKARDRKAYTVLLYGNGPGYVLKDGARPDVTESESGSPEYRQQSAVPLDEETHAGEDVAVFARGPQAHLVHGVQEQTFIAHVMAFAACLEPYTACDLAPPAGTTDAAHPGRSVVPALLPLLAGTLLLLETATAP

pEC50, active:
O=C(Cc1ccc(Cl)c(Cl)c1)NNC(=S)NCC1CCCO1 (centres undefined) 4.68, COc1ccc(O)c(/C=N/NC(=S)NCCc2ccccc2)c1 4.72, Cc1cc(=O)[nH]c(-n2[nH]c3c(c2=O)CCCC3)n1 4.87, CCOC(=O)c1cnc(-n2nc(C)cc2C)nc1NNc1nc(C)cc(C)n1 4.60, OC(c1nc2ccc(F)cc2[nH]1)C(O)c1nc2ccc(F)cc2[nH]1 (centres undefined) 4.98, CC(=O)Nc1cccc(C(=O)NNC(=O)c2n[nH]c(=O)c3ccccc23)c1 4.90, CCOCCCNC(=O)CCC(=O)NNc1nc2ccccc2c2nc(-c3ccccc3)nn12 4.72, CC1C(=O)NN=C1C(=O)N/N=C\c1ccc(O)cc1O (centres undefined) 4.88, CSCCC(NS(=O)(=O)c1ccccc1F)C(=O)NNC(=O)c1csc(N2CCOCC2)n1 (centres undefined) 4.90, O=C(NC(=S)NNC(=O)c1ccccc1O)c1ccc(F)cc1 4.87, CCCOCC(O)CC(CC)C(=O)NNC(=S)Nc1ccccc1 (centres undefined) 4.78, Cc1nc2c3ccccc3nc(NNC(=O)CCC(=O)NCCC(C)C)n2n1 4.86, CC(NC(=S)NC1CCC(C(C)(C)C)CC1)c1ccccc1 (centres undefined) 4.39, CC1=NN(c2nc3ccccc3[nH]2)C(=O)/C1=C/N(C)C 4.82, Cc1cccc(NS(=O)(=O)c2cccc(C(=O)NNC(=O)c3ccccc3O)c2)c1 4.37, COc1ccccc1CN1CCC(n2nccc2NC(=O)CCCc2ccccc2)CC1 4.16, Cc1cccc(-n2ncc3c(NNC(=O)c4ccco4)ncnc32)c1 5.04, CCOc1cc(/C=N/NC(=O)C(=O)N/N=C/c2ccc(O)c(OCC)c2)ccc1O 4.15, Cc1nn(C)c(C(=O)NNC(=S)NCc2ccccc2)c1Cl 4.73, C[C@@H](NC(=O)c1[nH]cnc1C(=O)Nc1ccon1)c1ccccc1 4.70, Cc1ccccc1CN1CCC(n2nccc2NC(=O)CCCc2ccccc2)CC1 4.12, O=C1Nc2ccc(Br)cc2C12NNc1ccccc1O2 (centres undefined) 6.26, COc1ccccc1CNC(=O)CN(c1ccc(C)cc1)S(=O)(=O)c1c(C)noc1C 4.05, O=C(NNC(=S)NC(=O)c1ccccc1[N+](=O)[O-])c1ccccc1O 4.98, CCC(C)(C)C1CCc2[nH]nc(C(=O)N/N=C(\C)c3ccco3)c2C1 (centres undefined) 4.23, O=C(CCN1C(=O)/C(=C/c2ccccc2Cl)SC1=S)NNC(=O)c1ccccc1O 4.60, CCn1c(C)nc2cc(C(=O)N/N=C/c3cccc(O)c3O)ccc21 4.96, O=C(NNC(=S)NCc1ccco1)c1ccccc1Br 4.86, Cc1cc(C)cc(OCC(=O)NNC(=O)c2cc(C)[nH]n2)c1 4.73, CCC(NC(=S)NC1CCCCC1)c1ccc(C(C)C)cc1 (centres undefined) 4.22, COc1cc(CN2CCC(n3nccc3NC(=O)CCCc3ccccc3)CC2)ccc1F 4.09, Cc1c(C(=O)N/N=C/c2c(O)ccc3ccccc23)nnn1-c1nonc1N 4.79, COc1ccc(OC)c(NC(=O)c2cc(-c3cc(C)ccc3O)n[nH]2)c1 4.64, COc1ccccc1N(C)S(=O)(=O)c1ccc(Cl)c(C(=O)NNC(=O)c2ccccc2O)c1 4.71, Cc1ccc(O)c(/C=N/NC(=O)c2[nH]ncc2Br)c1 4.12, CCOc1cccc(-c2nc(C(N)=O)c3[nH]c(=O)n(-c4cccc(Cl)c4)c3n2)c1O 5.72, Cn1c(/C(C#N)=C(\O)c2ccc(Br)s2)nc2ccccc21 4.21, CN(C)S(=O)(=O)c1cccc(NC(=S)NNC(=O)c2cc3ccccc3cc2O)c1 4.87, Cc1[nH]n(-c2nc(-c3ccccc3)cc(=O)[nH]2)c(=O)c1CCO 4.51
